Experimental data reported in the NIST ThermoML archive (doi:10.1021/acs.jced.6b00655).
Values joined by “and” are separate entries in the source; they are usually repeats but may differ in a detail not shown here. Equal entries are not always repeated.

Legend:
[1] = xn = mol fraction of the nth substance listed; details: 100 kPa, Liquid, Vibrating tube method
[2] = 343.15 K; 100 kPa; Liquid; Vibrating tube method

CCCC[N+]1(C)CCCC1.O=S(=O)([O-])C(F)(F)F [1-butyl-1-methylpyrrolidinium trifluoromethanesulfonate] + c1ccccc1
[1], 283.15 K
Details | mass density [kg/m3]
x2 = 0 | 1263.28
x2 = 0.047 | 1257.62
x2 = 0.095 | 1251.22
x2 = 0.199 | 1235.63
x2 = 0.293 | 1218.76
x2 = 0.405 | 1195.65
x2 = 0.503 | 1170.77
x2 = 0.601 | 1140.47
x2 = 0.644 | 1125.22
x2 = 0.675 | 1112.49
x2 = 0.701 | 1101.39
x2 = 0.718 | 1093.71
x2 = 0.738 | 1084.59

CCCC[N+](C)(C)C.O=S(=O)([N-]S(=O)(=O)C(F)(F)F)C(F)(F)F [butyltrimethylammonium bis(trifluoromethylsulfonyl)imide]
Details | mass density
[2] | 1348.32 kg/m3 and 1346.21 kg/m3

CCCC[N+](C)(C)C.O=S(=O)([N-]S(=O)(=O)C(F)(F)F)C(F)(F)F [butyltrimethylammonium bis(trifluoromethylsulfonyl)imide] + CCc1ccccc1
[1], 343.15 K
Details | mass density [kg/m3]
x2 = 0 | 1348.32
x2 = 0.037 | 1345.32
x2 = 0.099 | 1330.93
x2 = 0.245 | 1295.53
x2 = 0.309 | 1271.7
x2 = 0.397 | 1243.17
x2 = 0.448 | 1221.88
x2 = 0.498 | 1201.31

CCCC[N+](C)(C)C.O=S(=O)([N-]S(=O)(=O)C(F)(F)F)C(F)(F)F [butyltrimethylammonium bis(trifluoromethylsulfonyl)imide] + Cc1ccc(C)cc1
[1], 343.15 K
Details | mass density [kg/m3]
x2 = 0 | 1348.32
x2 = 0.056 | 1341.21
x2 = 0.096 | 1332.06
x2 = 0.196 | 1307.74
x2 = 0.307 | 1273.97
x2 = 0.414 | 1235.93
x2 = 0.486 | 1205.85

CCCC[N+](C)(C)C.O=S(=O)([N-]S(=O)(=O)C(F)(F)F)C(F)(F)F [butyltrimethylammonium bis(trifluoromethylsulfonyl)imide] + Cc1cccc(C)c1
[1], 343.15 K
Details | mass density [kg/m3]
x2 = 0 | 1348.32
x2 = 0.057 | 1340.71
x2 = 0.099 | 1330.46
x2 = 0.2 | 1304.78
x2 = 0.305 | 1274.33
x2 = 0.411 | 1235.86
x2 = 0.45 | 1222.37
x2 = 0.502 | 1201.38

CCCC[N+](C)(C)C.O=S(=O)([N-]S(=O)(=O)C(F)(F)F)C(F)(F)F [butyltrimethylammonium bis(trifluoromethylsulfonyl)imide] + Cc1ccccc1
[1], 343.15 K
Details | mass density [kg/m3]
x2 = 0 | 1346.21
x2 = 0.1 | 1333.19
x2 = 0.202 | 1310.32
x2 = 0.316 | 1279.85
x2 = 0.404 | 1252.66
x2 = 0.502 | 1211.78
x2 = 0.61 | 1167.51
x2 = 0.643 | 1150.47

CCCC[N+](C)(C)C.O=S(=O)([N-]S(=O)(=O)C(F)(F)F)C(F)(F)F [butyltrimethylammonium bis(trifluoromethylsulfonyl)imide] + Cc1ccccc1C
[1], 343.15 K
Details | mass density [kg/m3]
x2 = 0 | 1348.32
x2 = 0.046 | 1343.67
x2 = 0.099 | 1331.9
x2 = 0.207 | 1306.39
x2 = 0.309 | 1276.95
x2 = 0.398 | 1246.25
x2 = 0.481 | 1213.91
x2 = 0.542 | 1191.25

CCCC[N+](C)(C)C.O=S(=O)([N-]S(=O)(=O)C(F)(F)F)C(F)(F)F [butyltrimethylammonium bis(trifluoromethylsulfonyl)imide] + c1ccccc1
[1], 343.15 K
Details | mass density [kg/m3]
x2 = 0 | 1348.32
x2 = 0.096 | 1335.57
x2 = 0.2 | 1316.52
x2 = 0.308 | 1288.49
x2 = 0.414 | 1262.43
x2 = 0.512 | 1229.56
x2 = 0.613 | 1185.89
x2 = 0.762 | 1105.62

CCCC[N+](C)(CCCC)CCCC.O=S(=O)([N-]S(=O)(=O)C(F)(F)F)C(F)(F)F [tributylmethylammonium bis((trifluoromethyl)sulfonyl)imide] + CCc1ccccc1
[1], 343.15 K
Details | mass density [kg/m3]
x2 = 0 | 1224.15
x2 = 0.105 | 1210.81
x2 = 0.203 | 1197.48
x2 = 0.295 | 1179.85
x2 = 0.389 | 1160.38
x2 = 0.461 | 1142.53
x2 = 0.584 | 1105.8
x2 = 0.701 | 1065.88
x2 = 0.732 | 1053.69

CCCC[N+](C)(CCCC)CCCC.O=S(=O)([N-]S(=O)(=O)C(F)(F)F)C(F)(F)F [tributylmethylammonium bis((trifluoromethyl)sulfonyl)imide] + Cc1ccc(C)cc1
[1], 343.15 K
Details | mass density [kg/m3]
x2 = 0 | 1224.15
x2 = 0.106 | 1209.82
x2 = 0.257 | 1187.07
x2 = 0.37 | 1163.42
x2 = 0.459 | 1143.06
x2 = 0.552 | 1114.23
x2 = 0.7 | 1057.46

CCCC[N+](C)(CCCC)CCCC.O=S(=O)([N-]S(=O)(=O)C(F)(F)F)C(F)(F)F [tributylmethylammonium bis((trifluoromethyl)sulfonyl)imide] + Cc1cccc(C)c1
[1], 343.15 K
Details | mass density [kg/m3]
x2 = 0 | 1224.18
x2 = 0.148 | 1203.79
x2 = 0.262 | 1185.69
x2 = 0.363 | 1165.61
x2 = 0.498 | 1130.77
x2 = 0.605 | 1095.81
x2 = 0.708 | 1059.94

CCCC[N+](C)(CCCC)CCCC.O=S(=O)([N-]S(=O)(=O)C(F)(F)F)C(F)(F)F [tributylmethylammonium bis((trifluoromethyl)sulfonyl)imide] + Cc1ccccc1
[1], 343.15 K
Details | mass density [kg/m3]
x2 = 0 | 1224.15
x2 = 0.055 | 1218.2
x2 = 0.104 | 1212.25
x2 = 0.199 | 1200.37
x2 = 0.303 | 1184.47
x2 = 0.411 | 1163.41
x2 = 0.586 | 1117.48
x2 = 0.799 | 1036.86
x2 = 0.84 | 1016.08

CCCC[N+](C)(CCCC)CCCC.O=S(=O)([N-]S(=O)(=O)C(F)(F)F)C(F)(F)F [tributylmethylammonium bis((trifluoromethyl)sulfonyl)imide] + Cc1ccccc1C
[1], 343.15 K
Details | mass density [kg/m3]
x2 = 0 | 1224.15
x2 = 0.152 | 1204.93
x2 = 0.26 | 1188.05
x2 = 0.365 | 1168.37
x2 = 0.506 | 1134.17
x2 = 0.623 | 1096.91
x2 = 0.751 | 1046.57

CCCC[N+](C)(CCCC)CCCC.O=S(=O)([N-]S(=O)(=O)C(F)(F)F)C(F)(F)F [tributylmethylammonium bis((trifluoromethyl)sulfonyl)imide] + c1ccccc1
[1], 343.15 K
Details | mass density [kg/m3]
x2 = 0 | 1224.15
x2 = 0.048 | 1220.37
x2 = 0.097 | 1216.25
x2 = 0.198 | 1204.31
x2 = 0.294 | 1188.64
x2 = 0.393 | 1168.17
x2 = 0.506 | 1139.35
x2 = 0.596 | 1112.34
x2 = 0.701 | 1076.48
x2 = 0.738 | 1062.44
x2 = 0.774 | 1048.36
x2 = 0.801 | 1037.22
x2 = 0.823 | 1028.14
x2 = 0.85 | 1016.43
x2 = 0.865 | 1010.24
